We go through 7 compounds from patent US6586402B1, “LH-RH peptide analogues, their uses and pharmaceutical compositions containing them” (Laboratoire Theramex, priority 1997, dated 2003).

Like-named read-outs stand apart in the source and are kept apart here. Square brackets hold non-standard residues; d marks the D form. Peptide text beside a SMILES is read from it. dPhe(4-Cl) = N[C@H](Cc1ccc(Cl)cc1)C(=O)O; d2Nal = N[C@H](Cc1ccc2ccccc2c1)C(=O)O; d(hCit) = NC(=O)NCCCC[C@@H](N)C(=O)O; Lys(iPr) = CC(C)NCCCC[C@H](N)C(=O)O; dCit = NC(=O)NCCC[C@@H](N)C(=O)O; tBuAla = CC(C)(C)C[C@H](N)C(=O)O; d3Pal = N[C@H](Cc1cccnc1)C(=O)O Some results are limits rather than exact numbers.

The target in test [1] is T1, LH-RH receptors (Rattus norvegicus, UniProt P30969).
T1 sequence (P30969 1-327): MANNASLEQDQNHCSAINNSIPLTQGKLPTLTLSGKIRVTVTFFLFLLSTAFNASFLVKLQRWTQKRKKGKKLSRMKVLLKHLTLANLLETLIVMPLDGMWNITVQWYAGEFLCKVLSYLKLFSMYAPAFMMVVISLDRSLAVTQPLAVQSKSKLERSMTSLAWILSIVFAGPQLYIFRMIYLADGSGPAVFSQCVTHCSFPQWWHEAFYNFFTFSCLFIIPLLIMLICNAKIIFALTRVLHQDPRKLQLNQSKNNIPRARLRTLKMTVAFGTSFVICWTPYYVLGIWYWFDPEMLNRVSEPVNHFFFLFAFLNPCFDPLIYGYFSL
Briefly: biochemical.

Test [2] concerns the target T1, LH-RH receptors.
Test [3] concerns the target LH-RH receptors (membrane fractions of pituitaries from female Sprague Dawley rats) (rat (female Sprague Dawley)) (UniProt P30969). As to the kind of experiment: competition with [125I]-buserelin, rat pituitary membranes; Ki by Cheng-Prusoff.
Test [4] shares this target. Briefly: competition with [125I]-buserelin, rat pituitary membranes.

As to `CC(=O)N[C@H](Cc1ccc2ccccc2c1)C(=O)N[C@H](Cc1ccc(Cl)cc1)C(=O)N[C@H](Cc1cccnc1)C(=O)N[C@@H](CO)C(=O)N[C@@H](Cc1ccc(O)cc1)C(=O)N[C@H](CCCNC(N)=O)C(=O)N[C@@H](CC(C)(C)C)C(=O)N[C@@H](CCCCNC(C)C)C(=O)N1CCC[C@H]1C(=O)N[C@H](C)C(N)=O` [Example 17, AcD-Nal-D-pClPhe-D-Pal-Ser-Tyr-D-Cit-Npg-IprLys-Pro-D-Ala-NH2] (Ac-[d2Nal][dPhe(4-Cl)][d3Pal]SY[dCit][tBuAla][Lys(iPr)]P[dA]-NH2), at LH-RH receptors [1], the Ki was 0.191 nM. Also, the “% of inhibition of ovulation” value at LH-RH receptors [2] (0.25 μg/rat s.c.) is listed as 80%; at LH-RH receptors [2] (0.5 μg/rat s.c.), 43%; at LH-RH receptors [2] (0.75 μg/rat s.c.), 100%; on LH-RH receptors [2] (1 μg/rat s.c.), 100%. For the same compound, the “Number of ovulating females/total number of treated females” value on LH-RH receptors [2] (0.25 μg/rat s.c.) is recorded as 1/5; at LH-RH receptors [2] (0.5 μg/rat s.c.) it was 4/7; at LH-RH receptors [2] (0.75 μg/rat s.c.), 0/7; on LH-RH receptors [2] (1 μg/rat s.c.) it was 0/12. Moreover, on LH-RH receptors [2] (1 μg/rat s.c.), the “antiovulatory activity in words” value is “maximal or sub-maximal activity”. The “dose relation of the inhibition of ovulation, in words” value on LH-RH receptors [2] (dose range studied, s.c.) was “especially active, but its effects were not related to the dose”.
At LH-RH receptors [1], `CC(=O)N[C@H](Cc1ccc2ccccc2c1)C(=O)N[C@H](Cc1ccc(Cl)cc1)C(=O)N[C@H](Cc1cccnc1)C(=O)N[C@@H](CO)C(=O)N[C@@H](Cc1ccc(O)cc1)C(=O)N[C@H](CCCCNC(N)=O)C(=O)N[C@@H](CC(C)(C)C)C(=O)N[C@@H](CCCCNC(C)C)C(=O)N1CCC[C@H]1C(=O)N[C@H](C)C(N)=O` [Example 18, AcD-Nal-D-pClPhe-D-Pal-Ser-Tyr-D-HCit-Npg-IprLys-Pro-D-Ala-NH2] (Ac-[d2Nal][dPhe(4-Cl)][d3Pal]SY[d(hCit)][tBuAla][Lys(iPr)]P[dA]-NH2) gave a Ki of 0.0851 nM. For the same compound, the “% of inhibition of ovulation” value at LH-RH receptors [2] (0.25 μg/rat s.c.) stood at 20%; on LH-RH receptors [2] (1 μg/rat s.c.) it was 80%.
Compound `CC(=O)N[C@H](Cc1ccc2ccccc2c1)C(=O)N[C@H](Cc1ccc(Cl)cc1)C(=O)N[C@H](Cc1cccnc1)C(=O)N[C@@H](CO)C(=O)N[C@@H](Cc1ccc(O)cc1)C(=O)N[C@H](CCCCNC(N)=O)C(=O)N[C@@H](CC(C)(C)C)C(=O)N[C@@H](CCCNC(=N)N)C(=O)N1CCC[C@H]1C(=O)N[C@H](C)C(N)=O` [Example 19, AcD-Nal-D-pClPhe-D-Pal-Ser-Tyr-D-HCit-Npg-Arg-Pro-D-Ala-NH2] (Ac-[d2Nal][dPhe(4-Cl)][d3Pal]SY[d(hCit)][tBuAla]RP[dA]-NH2) gave a Ki on LH-RH receptors [1] of 0.0776 nM. Besides, the “% of inhibition of ovulation” value was 40% at LH-RH receptors [2] (0.25 μg/rat s.c.) and 100% on LH-RH receptors [2] (1 μg/rat s.c.).
In the case of Antide (peptide), the pKi in test [3] is 9.16 -log Ki; in test [4] it was > 9 -log Ki.
Buserelin (peptide): the pKi was 9.35 -log Ki in test [3] and > 9 -log Ki in test [4].
For Deslorelin (peptide), in that order: 9.9 -log Ki and > 9 -log Ki.
For the compound Histrelin (peptide), the pKi was 9.98 -log Ki in test [3] and > 9 -log Ki in test [4].

What is called Ki is a dissociation constant, usually derived from enzyme kinetics or from competition with a known ligand. Read a high Ki as weaker binding. One may read the pKi as −log10 of the Ki, conventionally taken in molar units. Lower therefore signals a high Ki.
